Earlier results on 6 molecules are cited in patent US20190328719A1, “METHODS OF TREATING DEVELOPMENTAL DISORDERS AND/OR SEIZURE DISORDERS WITH FLUPIRTINE” (Ovid Therapeutics Inc., priority 2016, published 2019).

By Cmax is commonly meant the peak of the concentration-time curve.

Structures can show the parent of a compound that is named as a salt. Where two headings read alike, the source gives them in different places.

For data set [1] the following is noted: cited from earlier work.
For data set [2] the following is noted: cited from earlier work. This is another data set of the same source.
For data set [3] the following is noted: patients with a history of drug abuse; cited from earlier work.
For data set [4] the following is noted: three-month efficacy study, insomnia; cited from earlier work.
For data set [5] the following is noted: cited from earlier work; for Cmax (without correction for Cmin): 14 days of administration.
For data set [6] the following is noted: cited from earlier work. This is another data set of the same source.
For data set [7] the following is noted: cited from earlier work; for plasma elimination half-life: healthy young volunteers, single dose.
[8] abbreviates: dose range 200-400 mg three times daily.

As to `OC(c1ccccc1)(c1ccccc1)C1CCCCN1` (stereo not drawn) [pipradrol], the “effects of high doses” value in data set [1] was “uncoordinated activity and ataxia, followed by tremors and clonic convulsions”.

Turning to `CCOC(=O)Nc1ccc(NCc2ccc(F)cc2)cc1N` [retigabine, N-[2-amino-4-(4-fluorobenzylamino)-phenyl] carbamic acid ethyl ester], in data set [2] (setting [8]), the between-subject variability is 35-50% and the linearity of pharmacokinetics result is given as “linear”. Further, in data set [2] (in vivo), the “elimination half-lives (t/2)” value was 7 to 11 h and the median plasma half-life is 6 to 8 h. Further, the Absolute oral bioavailability entry in data set [2] (relative to an intravenous dose) is given as “approximately 60%”.

Take `Oc1noc2c1CCNC2` [gaboxadol, 4,5,6,7-tetrahydroisoxazolo [5,4-c]pyridine-3-ol]: the psychiatric adverse events result in data set [3] is recorded as “steep increase in psychiatric adverse events”. Besides, in data set [4], the “effects in sleep onset and sleep maintenance” value is “failed to show significant effects in sleep onset and sleep maintenance”.

Take `CC(=O)[C@H]1CC[C@H]2[C@@H]3CC[C@H]4C[C@](C)(O)CC[C@]4(C)[C@H]3CC[C@]12C` [ganaxolone]: in data set [5] (50 mg group), the Cmin was 2.34 ng/mL and the “Cmax (without correction for Cmin)” value is 32 ng/mL. Further, in data set [5] (200 mg group), the Cmin is 23.79 ng/mL and the “Cmax (without correction for Cmin)” value is 106 ng/mL. Also, in data set [5] (500 mg group), the Cmin is 56.71 ng/mL and the “Cmax (without correction for Cmin)” value is 376 ng/mL. In addition, in data set [5] (in vivo), the “AUC and Cmax with increasing dose” value is “linear and proportional increase”; the half-life result is given as “about 20 hours”. For the same molecule, in data set [5] (single 900 mg dose), the Cmax is 293 ± 63.8 ng/mL.

`CCOC(=O)Nc1ccc(NCc2ccc(F)cc2)nc1N` [flupirtine]: the water solubility entry in data set [6] is reported as “poorly water soluble”. For the same molecule, in data set [7] (75 or 150 mg at 12 hour intervals), the “time to steady-state plasma concentrations” value is 2 days. Also, the plasma elimination half-life entry in data set [7] (intravenous) is “about 8.5 hours”; in data set [7] (oral), around 9.6 h; in data set [7] (rectal), around 10.7 h. In data set [7] (intravenous), the “half-life following intravenous administration” value is “about 1.8 hours”. Further, in data set [7] (range of 50 to 300 mg), the “relation of plasma concentrations to dose” value is “linearly related to dose”. Moreover, in data set [7] (rectal dose, in comparison with intravenous flupirtine tartrate 80 mg), the Bioavailability entry was “about 72.5%”. Also, the “time until it appears in the plasma” value in data set [7] (single oral dose 100 mg or 200 mg, healthy volunteers) was 15 to 30 min. For the same molecule, the figures for the “peak plasma concentration (Cmax)” value in data set [7] (single oral dose 100 mg) and in data set [7] (single oral dose 200 mg) were “approximately 0.8 mg/L” and around 2000 ng/mL, respectively.

Regarding `CCOC(=O)Nc1ccc(NCc2ccc(F)cc2)nc1N` [flupirtine maleate], the water solubility result in data set [6] (listed as maleate salt) is reported as “water soluble”. Moreover, the Cmax entry in data set [7] (rectal, flupirtine maleate 150 mg) is recorded as “about 0.89 mg/L”.
